{"source": "patent US7365231B2", "about": "“Compound with antitumor activity and preparation method therefor” (National Taiwan University of Science & Technology, priority 2005, dated 2008)", "key": {"[1]": {"system": "colon cancer cell lines", "settings": "NCI Anticancer Drug Screen; cited from earlier work"}, "[2]": {"system": "human colon cancer cells xenografts", "settings": "cited from earlier work"}, "[3]": {"system": "human colon cancer cells", "settings": "cited from earlier work"}, "[4]": {"settings": "xenograft study; cited from earlier work"}, "[5]": {"system": "human gastric (SC-M1) cancer", "settings": "SC-M1 in SCID mice; cited from earlier work"}, "[6]": {"system": "colon (Colo 205) cancer", "settings": "Colo 205 in SCID mice; cited from earlier work"}}}
{"compound": "1,6-bis(4-(4-amino-3-hydroxyphenoxy)phenyl)diamantane [DPD]", "values": [{"measurement": "anticancer activity on colon cancer cell lines", "setting": "[1]", "value": "marked anticancer activities"}, {"measurement": "in vivo anticancer activity", "setting": "[2]", "value": "has in vivo anticancer activity"}, {"measurement": "cell cycle arrest and differentiation", "setting": "[3]", "value": "induced G0/G1 arrest and differentiation"}, {"measurement": "acute toxicity", "setting": "[4]", "value": "no obvious acute toxicity"}]}
{"compound": "O=C1C=CC(=O)N1C12CC3CC(CC(C3)C1)C2", "note": "[AMI, N-1-adamantylmaleimide]", "values": [{"measurement": "apoptosis and tumor growth", "setting": "[5]", "value": "induce apoptosis and inhibit the growth"}]}
{"compound": "dimethyladamantylmaleimide [DMAMI]", "values": [{"measurement": "apoptosis and tumor growth", "setting": "[6]", "value": "induce apoptosis and inhibit the growth"}]}
{"compound": "Nc1ccc(Oc2ccc(Oc3ccc(N)c(O)c3)cc2)cc1O", "note": "[Example 8, 1,4-Bis(4-amino-3-hydroxyphenoxy)benzene]", "values": [{"measurement": "melting point", "value": "> 220 °C (dec.)"}]}
{"compound": "Nc1ccc(Oc2ccccc2Oc2ccc(N)c(O)c2)cc1O", "note": "[Example 10, 1,2-Bis(4-amino-3-hydroxyphenoxy)benzene]", "values": [{"measurement": "melting point", "value": "> 180 °C (dec.)"}]}
